Results taken from patent publication US20250066423A1, “SESTRIN-MAPK COMPLEX INHIBITORS” (Sentcell Ltd, priority 2021, published 2025).
Peptide text beside a SMILES is read from it.

Experiments:
sestrin mRNA = assay: Sestrin mRNA expression in spleens of DOS treated old mice (qPCR); format: in vivo; conditions: single dose, from day ten
Description: FIG. 13 illustrates the level of Sestrin in DOS-treated murine blood and tissues. (A-B) Old mice were inoculated subcutaneously with DOS46L compound (0.1 mg/kg or 1 mg/kg). Blood was withdrawn at 0, 48, 72 hours and 8 weeks after the inoculation. Pharmacodynamics of Sestrin 2 were analysed by FACS in CD4+ T cell population. […] Untreated age-matched controls are shown. (D) 72 hr after DOS treatment, mice were sacrificed and old tissues were collected to analyse Sestrin levels in different organs by immunoblotting. **p<0.01, *p<0.05.
• 1. Transduced cells were collected • 2. Cell suspension was centrifugated and the cell pellet resuspended in warm PBS with 5 μM of CTV • 3. Followed an incubation of 10 min at 37° C. • 4. Cold PBS was added and cells were centrifugated • 5. Cells were then resuspended in medium and counted • 6. An aliquot of these cells were checked by FACS • 7. Cells were then stimulated with DOS in 200 μL and left for 12 days in culture RNA Extraction, Retro-Transcription and qPCR • 1. CD4+ cells were purified from mouse spleen using appropriate microbeads (Miltenyi) • 2. Total RNA from CD4+ cells was extracted using the “PureLink RNA Mini Kit” (Invitrogen). • 3. RNA concentration was acquired by NANO-DROP spectrophotometer (Thermo-Scientific). • 4. […]

[1] = system: sMAC activation (Sestrin 2, p-p38); assay: Titration of DOS46L in senescent CD4+ CD27− CD28− T cells, immunoblot; format: cell-based, human; conditions: within 4 hours of treatment
Description: FIG. 7 illustrates titration of DOS46L. (A-B) CD4+ CD27− CD28− T cells were isolated from PBMCs from healthy donors and treated with increasing doses of DOS46L compound for 4 hours and harvested for immunoblot analysis. (A) Levels of Sestrin 2, p-p38 and H2B were evaluated by immunoblot. (B) Quantification of Sestrin 2 was analysed with Histone 3 as a loading control. Represented are the mean values±SEM of at least three independent experiments. Values are compared using One-Way ANOVA test followed by Tukey's post hoc test. (C-D) CD4+ CD27−CD28− T cells were treated with DOS46L compound (10 uM) for 0.5, 1, 2 and 4 hours and harvested for immunoblot analysis at indicated time points. (C) Levels of Sestrin 1, Sestrin 2, and Sestrin 3 were evaluated by immunoblot. Histone 3 was used as a loading control. (D) Quantification of Sestrin 1, Sestrin 2 and Sestrin 3, with Histone 3 as a loading control. Represented are the mean values±SEM of at least four independent experiments. Values are compared using One-Way ANOVA test followed by Tukey's post hoc test or Student's T-test. *p<0.05, **p<0.01
• 1. CD4+ cells were separated from PBMC using appropriate microbeads kit (Miltenyi) • 2. Cells were resuspended in whole RPMI medium and plated in the 24-multiwell plate • 3. Then activated for 4 hrs with DOS compounds • 4. […]

[2] = system: CD95+ CD62L+ CD44− CD4+ memory T cells; format: in vivo, mice; conditions: examined up to 8 weeks
recombinant sestrin 3 = biological target: T1, recombinant sestrin 3 (Homo sapiens, UniProt P58005); assay: Streptavidin pull-down of biotinylated DOS46L with flag recombinant sestrins; format: binding; conditions: in vitro
T1 sequence (P58005 1-492): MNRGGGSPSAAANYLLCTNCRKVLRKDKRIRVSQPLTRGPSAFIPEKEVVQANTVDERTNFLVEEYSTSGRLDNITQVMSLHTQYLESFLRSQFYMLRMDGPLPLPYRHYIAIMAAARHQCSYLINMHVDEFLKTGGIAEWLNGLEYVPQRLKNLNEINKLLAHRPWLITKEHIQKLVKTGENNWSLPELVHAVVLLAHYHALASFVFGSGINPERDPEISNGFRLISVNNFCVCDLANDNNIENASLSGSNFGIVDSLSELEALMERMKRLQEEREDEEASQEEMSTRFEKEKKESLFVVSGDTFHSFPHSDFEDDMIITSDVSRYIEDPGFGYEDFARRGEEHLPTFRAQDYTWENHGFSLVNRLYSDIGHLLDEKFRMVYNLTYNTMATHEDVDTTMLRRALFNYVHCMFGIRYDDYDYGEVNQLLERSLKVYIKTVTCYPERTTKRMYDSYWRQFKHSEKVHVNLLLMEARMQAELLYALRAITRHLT
Description: However, it should be considered that direct binding is not a pre-requisite for DOS sestrin inhibitory function.
(A) Biotinylated DOS46L was mixed with flag recombinant Sestrins, immunoprecipitated with streptavidin and immunoblotted with flag Sestrins. […] Representative images from three experiments are shown. […] (D) DOS46L binds to the entire sMAC complex in CD4 T cells. CD4+ T cells were isolated from PBMCs from healthy donors and treated with biotinylated DOS46L compound (10 uM) for 4 hours. Cells were harvested for immunoprecipitation analysis.

## CC[C@H](C)[C@@H]1NC(=O)[C@H](Cc2ccccc2)NC(=O)[C@H](C)NC(=O)[C@H](C(C)C)NC(=O)[C@@H]2CCCN2C1=O [DOS46L] (cyclo(AFIPV))
Sestrin mRNA
  sestrin mRNA expression: Long term mRNA silencing of sestrin expression
[1]
  concentration from which sMAC activation is suppressed: 16 nM
[2]
  stem-like memory T cell generation: permanent stem-like generation
Recombinant sestrin 3
  direct binding to recombinant sestrin 3: does not directly bind
